The values that follow come from patent US4271193A, “N1-Benzoyl-N2-phenyldiaminopropanols and pharmaceutical compositions thereof, and processes for their preparation” (Kali-Chemie Pharma GmbH, priority 1978, dated 1981).

Usually LD50 stands for the dose at which mortality reaches 50%.

In one data set the test system is stomach epithelium cells. The data set is described as follows: Inhibition of acetylsalicylic acid-induced loss of stomach epithelium cells. It is filed as in vivo. Conditions: Rattus norvegicus; narcotized male SIV50 rats; acetylsalicylic acid as irritant; 3 times 300 mg/kg test compound orally beforehand; read-out: % reduction of loss of epithelium cells in the stomach. The protocol:
2. Inhibition of loss of stomach epithelium cells
The test compound is orally administered to narcotized male rats of the breed SIV50 prior to the beginning of the test. […] In order to determine the induced total loss of cells in the rats stomach, acetylsalicylic acid is administered to animals without prior administration of a protective compound.
In order to prepare the animals for the determination, the trachea is laid free and a tube introduced therein. Subsequently, a laparotomy in the medial part, displacement of the stomach and introducing and fixing of a vein-catheter for recovering stomach juices are effected. By means of the introduced vein-catheter, stomach juice is recovered and then is centrifuged and microscopically analyzed.
The percent reduction of loss of cells induced by the acetylsalicylic acid after previous administration of 3 times 300 mg/kg of the test compound is determined.

The nature of data set [1]: Acute 7-day toxicity after single application per os. The following applies: mouse, in vivo, po, white NMRI-mice, not fed. The protocol: The acute 7-day toxicity is determined after a single application per os in white NMRI-mice which had not been fed. The calculation of the LD50 is carried out by probitananalysis by means of electronic data processing (see L. Cavalli-Sforza, Gustav Fischer-Verlag, Stuttgart (1964), Grundbegriffe der Biometrie, p. 153).

Molecules are shown by their SMILES. A value given as a limit tells only on which side of the number the result lay.

With `COc1cc(C(=O)NCC(O)CN(C)c2ccc(F)cc2)cc(OC)c1OC` (stereo not drawn) [A], the inhibition in vivo at 300 mg/kg in the data set on stomach epithelium cells amounted to 53%. In data set [1], this molecule registered an LD50 at 168 h of 5010 mg/kg.

As for `COc1cc(C(=O)NCC(O)CN(C)c2ccc(Cl)cc2)cc(OC)c1OC` (stereo not drawn) [B], the inhibition in vivo at 300 mg/kg in the data set on stomach epithelium cells came to 77%. The molecule further yielded an LD50 at 168 h in data set [1] of more than 5000 mg/kg.

Take `COc1cc(C(=O)NCC(O)CN(C)c2ccc(C(F)(F)F)cc2)cc(OC)c1OC` (stereo not drawn) [C]: the inhibition in vivo at 300 mg/kg with stomach epithelium cells was 47.8%. For the same molecule, in data set [1], the LD50 at 168 h was more than 1390 mg/kg.

For `COc1cc(C(=O)NCC(O)CN(C)c2ccc(C)cc2)cc(OC)c1OC` (stereo not drawn) [D], the inhibition in vivo at 300 mg/kg with stomach epithelium cells came to 47.8%. Besides, in data set [1], the LD50 at 168 h is more than 3160 mg/kg.

For the molecule `CCN(CC(O)CNC(=O)c1cc(OC)c(OC)c(OC)c1)c1ccc(F)cc1` (stereo not drawn) [E], the inhibition in vivo at 300 mg/kg with stomach epithelium cells was 43%. This molecule also registered an LD50 at 168 h in data set [1] of more than 1280 mg/kg.

Consider `COc1cc(C(=O)NCC(O)CNc2c(C)cc(C)cc2C)cc(OC)c1OC` (stereo not drawn) [F], for which the inhibition in vivo at 300 mg/kg in the data set with stomach epithelium cells turned out to be 28.4%. The same molecule had an LD50 at 168 h in data set [1] of more than 1270 mg/kg.

Take `CCOc1cc(C(=O)NCC(O)CN(C)c2ccc(F)cc2)cc(OCC)c1OCC` (stereo not drawn) [G]: the inhibition in vivo at 300 mg/kg with stomach epithelium cells stood at 63%. Besides, the LD50 at 168 h in data set [1] was more than 1370 mg/kg.

In the case of `COc1ccc(C(=O)NCC(O)CN(C)c2ccc(F)cc2)c2c1OCCO2` (stereo not drawn) [H], the inhibition in vivo at 300 mg/kg in the data set with stomach epithelium cells amounted to 48.6%. In addition, the LD50 at 168 h in data set [1] was more than 1230 mg/kg.

`CCCCOc1c(OC)cc(C(=O)NCC(O)CN(C)c2ccc(F)cc2)cc1OC` (stereo not drawn) [I]: the inhibition in vivo at 300 mg/kg in the data set on stomach epithelium cells stood at 27.2%. The same molecule came in with an LD50 at 168 h in data set [1] of more than 1370 mg/kg.
